{"source": "patent US20230338541A1", "about": "“USE OF HIGH MOLECULAR WEIGHT HYALURONIC ACID AS OCULAR TRANSPORTING VEHICLE” (I.COM MEDICAL GMBH, priority 2020, published 2023)", "assay": "Pre-test: latanoprost dissolved in the 0.15% hylan A vehicle, HPLC", "assay_type": "physicochemical", "conditions": "0.15% w/v hylan A vehicle, stirred 18 hours at 40° C., 25 or 50 μg/ml added", "experimental": "Sterile bulk solution for the production of COMFORT SHIELD® MDS eye drops (i.com medical GmbH, Munich, Germany) was used as vehicle for the preparation of prototype latanoprost bulk solution (PLBS). The vehicle contained 0.15% w/v hylan A (HA with 2.9 m^3/kg intrinsic viscosity) dissolved in phosphate buffered saline solution (8.035 g/l NaCl; 1.2 mmol/1 Na2HPO4/NaH2PO4; pH 7.4). Latanoprost was obtained from Yonsung Fine Chemicals Co. Ltd., Gyeonggi-do, Republic of Korea. PLBS was prepared by medi-pharm Laboratorium GmbH, Falkensee, Germany by dissolving 20±1 μg/ml latanoprost in the vehicle.\nIn a pre-test 25 μg/ml and 50 μg/ml latanoprost were added to the vehicle and the solution stirred for 18 hours at 40° C. The latanoprost content was determined by HPLC using a Hypersil BDS C18 5 μg, 150.0×4.0 mm column (VDS optilab) and a UV detector (200 nm).", "data": [{"compound": "CC(C)OC(=O)CCC/C=C\\C[C@@H]1[C@@H](CC[C@@H](O)CCc2ccccc2)[C@H](O)C[C@@H]1O", "note": "[latanoprost, Latanoprost]", "values": [{"measurement": "latanoprost found to be dissolved in the vehicle", "value": 20.8, "unit": "µg/mL"}]}]}
